Data as given in patent US11713335B2, “Aminocoumarin compounds and methods of their use” (President and Fellows of Harvard College, priority 2018, dated 2023).
In brackets after ≈: the same amount, converted by molar mass. Where two headings read alike, the source gives them in different places.

Legend:
WT E. coli = experiment: Minimal inhibitory concentration in wild-type E. coli; type: cell-based, Escherichia coli; settings: wild-type E. coli, 37° C., 16 hours, read-out: MIC (μM) in WT E. coli
Outline: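 Broth microdilution: saturated LB overnight culture diluted 1:100 twice, compound serially two-fold diluted across the plate from DMSO stock. Static incubation 16 hours at 37° C, OD600 read; MIC taken as lowest concentration inhibiting growth.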

A. baumannii 19606 = experiment: Minimal inhibitory concentration, A. baumannii 19606; type: cell-based; settings: 16 hour minimal inhibitory concentration at 37° C., read-out: MIC (μM) A. baumannii 19606
Outline: (§1)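 MIC, in µM, taken as the lowest compound concentration preventing growth by OD600 after 16 h static incubation at 37 °C. Compound was twofold serially diluted in bacteria grown overnight in LB, or TSA for S. aureus, and diluted 1:100 twice.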

K. pneumoniae 700721 = experiment: Minimal inhibitory concentration, K. pneumoniae 700721; type: cell-based; settings: 16 hour minimal inhibitory concentration at 37° C., read-out: MIC (μM) K. pneumoniae 700721
Outline: as §1

S. aureus MW2 = experiment: Minimal inhibitory concentration, S. aureus MW2; type: cell-based; settings: 16 hour minimal inhibitory concentration at 37° C., read-out: MIC (μM) S. aureus MW2 (MRSA)
Outline: as §1

E. coli 25922 = experiment: Minimal inhibitory concentration, E. coli 25922; type: cell-based; settings: 16 hour minimal inhibitory concentration at 37° C., read-out: MIC (μM) E. coli 25922
Outline: as §1

S. aureus RN4220 = experiment: Minimal inhibitory concentration, S. aureus RN4220; type: cell-based; settings: 16 hour minimal inhibitory concentration at 37° C., read-out: MIC (μM) S. aureus RN4220
Outline: as §1

E. cloacae 13047 = experiment: Minimal inhibitory concentration, E. cloacae 13047; type: cell-based; settings: 16 hour minimal inhibitory concentration at 37° C., read-out: MIC (μM) E. cloacae 13047
Outline: as §1

E. coli MC4100 = experiment: Minimal inhibitory concentration, E. coli MC4100; type: cell-based; settings: 16 hour minimal inhibitory concentration at 37° C., read-out: MIC (μM) E. coli MC4100 ara+
Outline: as §1

[1] = Acinetobacter baumannii, 19606, 16 h
[2] = Staphylococcus aureus, MRSA, 16 h
[3] = Staphylococcus aureus, RN4220, 16 h

SMILES: CO[C@@H]1[C@@H](OC(N)=O)[C@@H](O)[C@H](Oc2ccc3c(O)c(NC(=O)c4cccc(-c5cccs5)c4)c(=O)oc3c2C)OC1(C)C [Compound 22]
- MIC (WT E. coli; Escherichia coli): 89 µM (≈ 54.3 µg/mL)
- MIC (A. baumannii 19606; [1]): > 50 µM
- MIC (K. pneumoniae 700721; Klebsiella pneumoniae, 700721): > 100 µM
- MIC (S. aureus MW2; [2]): 10 µM (≈ 6.11 µg/mL)
- MIC (E. coli 25922; Escherichia coli, 25922, 16 h): 164 µM (≈ 100 µg/mL)
- MIC (S. aureus RN4220; [3]): 10 µM (≈ 6.11 µg/mL)
- MIC (E. cloacae 13047; Enterobacter cloacae, 13047): > 100 µM
- MIC (E. coli MC4100; Escherichia coli, MC4100, 16 h): 89 µM (≈ 54.3 µg/mL)

SMILES: CO[C@@H]1[C@@H](OC(N)=O)[C@@H](O)[C@H](Oc2ccc3c(O)c(NC(=O)c4ccccc4-c4ccccc4)c(=O)oc3c2C)OC1(C)C [Compound 40]
- MIC (WT E. coli; Escherichia coli): > 300 µM
- MIC (A. baumannii 19606; [1]): > 50 µM
- MIC (K. pneumoniae 700721; Klebsiella pneumoniae, 700721): > 100 µM
- MIC (S. aureus MW2; [2]): 41 µM (≈ 24.8 µg/mL)
- MIC (E. coli 25922; Escherichia coli, 25922, 16 h): > 200 µM
- MIC (S. aureus RN4220; [3]): 41 µM (≈ 24.8 µg/mL)
- MIC (E. cloacae 13047; Enterobacter cloacae, 13047): > 100 µM
- MIC (E. coli MC4100; Escherichia coli, MC4100, 16 h): > 100 µM

SMILES: CO[C@@H]1[C@@H](OC(N)=O)[C@@H](O)[C@H](Oc2ccc3c(O)c(NC(=O)c4ccc(O)c(-c5cccc6ccccc56)c4)c(=O)oc3c2C)OC1(C)C [Compound 93]
- MIC (WT E. coli): 75 µM (≈ 50.3 µg/mL)
- MIC (A. baumannii 19606): >50 µM
- MIC (K. pneumoniae 700721): >100 µM
- MIC (S. aureus MW2): 19 µM (≈ 12.7 µg/mL)
- MIC (E. coli 25922): >200 µM
- MIC (S. aureus RN4220): 37 µM (≈ 24.8 µg/mL)
- MIC (E. cloacae 13047): >100 µM
- MIC (E. coli MC4100): 75 µM (≈ 50.3 µg/mL)

SMILES: COc1cccc(OC)c1C(=O)Nc1c(O)c2ccc(O[C@@H]3OC(C)(C)[C@H](OC)[C@@H](OC(N)=O)[C@H]3O)c(C)c2oc1=O [Compound 10]
- MIC (WT E. coli; Escherichia coli): > 300 µM
- MIC (A. baumannii 19606; [1]): > 50 µM
- MIC (K. pneumoniae 700721; Klebsiella pneumoniae, 700721): > 100 µM
- MIC (S. aureus MW2; [2]): 85 µM (≈ 50 µg/mL)
- MIC (E. coli 25922; Escherichia coli, 25922, 16 h): > 200 µM
- MIC (S. aureus RN4220; [3]): > 100 µM
- MIC (E. cloacae 13047; Enterobacter cloacae, 13047): > 100 µM
- MIC (E. coli MC4100; Escherichia coli, MC4100, 16 h): > 200 µM

SMILES: CO[C@@H]1[C@@H](OC(N)=O)[C@@H](O)[C@H](Oc2ccc3c(O)c(NC(=O)CCc4ccccc4)c(=O)oc3c2C)OC1(C)C [Compound 43]
- MIC (WT E. coli; Escherichia coli): > 300 µM
- MIC (A. baumannii 19606; [1]): > 50 µM
- MIC (K. pneumoniae 700721; Klebsiella pneumoniae, 700721): > 100 µM
- MIC (S. aureus MW2; [2]): > 100 µM
- MIC (E. coli 25922; Escherichia coli, 25922, 16 h): > 200 µM
- MIC (S. aureus RN4220; [3]): > 100 µM
- MIC (E. cloacae 13047; Enterobacter cloacae, 13047): > 100 µM
- MIC (E. coli MC4100; Escherichia coli, MC4100, 16 h): > 200 µM

SMILES: CO[C@@H]1[C@@H](OC(N)=O)[C@@H](O)[C@H](Oc2ccc3c(O)c(NC(=O)c4cccc(-c5ccc(C(F)(F)F)cc5)c4)c(=O)oc3c2C)OC1(C)C [Compound 55]
- MIC (WT E. coli): >300 µM
- MIC (A. baumannii 19606): 37 µM (≈ 24.9 µg/mL)
- MIC (K. pneumoniae 700721): >100 µM
- MIC (S. aureus MW2): 0.93 µM (≈ 0.626 µg/mL)
- MIC (E. coli 25922): >200 µM
- MIC (S. aureus RN4220): 1.49 µM (≈ 1 µg/mL)
- MIC (E. cloacae 13047): >100 µM
- MIC (E. coli MC4100): >200 µM

SMILES: COc1ccc(C(=O)Nc2c(O)c3ccc(O[C@@H]4OC(C)(C)[C@H](OC)[C@@H](OC(N)=O)[C@H]4O)c(C)c3oc2=O)cc1 [Compound 7]
- MIC (WT E. coli; Escherichia coli): > 300 µM
- MIC (A. baumannii 19606; [1]): > 50 µM
- MIC (K. pneumoniae 700721; Klebsiella pneumoniae, 700721): > 100 µM
- MIC (S. aureus MW2; [2]): 45 µM (≈ 25.1 µg/mL)
- MIC (E. coli 25922; Escherichia coli, 25922, 16 h): > 200 µM
- MIC (S. aureus RN4220; [3]): 45 µM (≈ 25.1 µg/mL)
- MIC (E. cloacae 13047; Enterobacter cloacae, 13047): > 100 µM
- MIC (E. coli MC4100; Escherichia coli, MC4100, 16 h): > 200 µM

SMILES: CO[C@@H]1[C@@H](OC(N)=O)[C@@H](O)[C@H](Oc2ccc3c(O)c(NC(=O)c4cccc(-c5ccccc5F)c4)c(=O)oc3c2C)OC1(C)C [Compound 37]
- MIC (WT E. coli; Escherichia coli): 59 µM (≈ 36.7 µg/mL)
- MIC (A. baumannii 19606; [1]): > 50 µM
- MIC (K. pneumoniae 700721; Klebsiella pneumoniae, 700721): > 100 µM
- MIC (S. aureus MW2; [2]): 10 µM (≈ 6.23 µg/mL)
- MIC (E. coli 25922; Escherichia coli, 25922, 16 h): 80 µM (≈ 49.8 µg/mL)
- MIC (S. aureus RN4220; [3]): 10 µM (≈ 6.23 µg/mL)
- MIC (E. cloacae 13047; Enterobacter cloacae, 13047): > 100 µM
- MIC (E. coli MC4100; Escherichia coli, MC4100, 16 h): 59 µM (≈ 36.7 µg/mL)

SMILES: CO[C@@H]1[C@@H](OC(N)=O)[C@@H](O)[C@H](Oc2ccc3c(O)c(NC(=O)c4cccc(-c5ccccc5C)c4)c(=O)oc3c2C)OC1(C)C [Compound 47]
- MIC (WT E. coli; Escherichia coli): 26 µM (≈ 16.1 µg/mL)
- MIC (A. baumannii 19606; [1]): > 50 µM
- MIC (K. pneumoniae 700721; Klebsiella pneumoniae, 700721): > 100 µM
- MIC (S. aureus MW2; [2]): 10 µM (≈ 6.19 µg/mL)
- MIC (E. coli 25922; Escherichia coli, 25922, 16 h): 40 µM (≈ 24.7 µg/mL)
- MIC (S. aureus RN4220; [3]): 20 µM (≈ 12.4 µg/mL)
- MIC (E. cloacae 13047; Enterobacter cloacae, 13047): > 100 µM
- MIC (E. coli MC4100; Escherichia coli, MC4100, 16 h): 26 µM (≈ 16.1 µg/mL)

SMILES: CO[C@@H]1[C@@H](OC(N)=O)[C@@H](O)[C@H](Oc2ccc3c(O)c(NC(=O)c4ccc(O)c(-c5ccc(F)cc5)c4)c(=O)oc3c2C)OC1(C)C [Compound 79]
- MIC (WT E. coli): 26 µM (≈ 16.6 µg/mL)
- MIC (A. baumannii 19606): 20 µM (≈ 12.8 µg/mL)
- MIC (K. pneumoniae 700721): 78 µM (≈ 49.8 µg/mL)
- MIC (S. aureus MW2): 0.98 µM (≈ 0.626 µg/mL)
- MIC (E. coli 25922): 20 µM (≈ 12.8 µg/mL)
- MIC (S. aureus RN4220): 2 µM (≈ 1.28 µg/mL)
- MIC (E. cloacae 13047): >100 µM
- MIC (E. coli MC4100): 26 µM (≈ 16.6 µg/mL)

SMILES: COc1ccc(C(=O)Nc2c(O)c3ccc(O[C@@H]4OC(C)(C)[C@H](OC)[C@@H](OC(N)=O)[C@H]4O)c(C)c3oc2=O)cc1OC [Compound 9]
- MIC (WT E. coli; Escherichia coli): > 300 µM
- MIC (A. baumannii 19606; [1]): > 50 µM
- MIC (K. pneumoniae 700721; Klebsiella pneumoniae, 700721): > 100 µM
- MIC (S. aureus MW2; [2]): 43 µM (≈ 25.3 µg/mL)
- MIC (E. coli 25922; Escherichia coli, 25922, 16 h): > 200 µM
- MIC (S. aureus RN4220; [3]): 85 µM (≈ 50 µg/mL)
- MIC (E. cloacae 13047; Enterobacter cloacae, 13047): > 100 µM
- MIC (E. coli MC4100; Escherichia coli, MC4100, 16 h): > 200 µM
